Data as given in US9463186B2, “Treatment for dopaminergic disorders” (Northwestern University, priority 2013, dated 2016).
“Also recorded” adds a separate entry of the source.

What was measured:
[1] = test system: SNc DA neurons; test: Mito-roGFP imaging of mitochondrial oxidant stress after chronic drug treatment by s.c. osmotic minipumps; assay type: in vivo, mice; conditions: for dose dependence of the effect of chronic administration on mitochondrial oxidant stress: 1 week via s.c. osmotic minipump, isradipine 0.03, 0.3, 3 mg/kg/day, rasagiline 1 and 3 mg/kg/day, FIG. 8; for mitochondrial oxidant stress in SNc dopaminergic neurons, chronic treatment: chronic (1 week) s.c. osmotic minipumps, FIG. 7d
[2] = test system: L-type calcium channels (Cav1.3) of SNc dopaminergic neurons; test: Whole cell patch clamp recordings of dopaminergic neurons in brain slices (Example 2); assay type: cell-based, mouse; conditions: for inhibition of L-type calcium channels: dihydropyridine antagonists, brain slice, FIG. 1 and FIG. 4
[3] = test system: SNc dopaminergic neurons; conditions: brain slice taken following rasagiline treatment; FIG. 6
[4] = test system: SNc DA neurons; conditions: acute treatment at the time of measurement; FIG. 7c-d
[5] = test system: SNc dopaminergic neurons; conditions: Fluo4 and 2PLSM; FIG. 6

Row | Compound | dose dependence of the effect of chronic administration on mitochondrial oxidant stress [1] | mitochondrial oxidant stress in SNc dopaminergic neurons, chronic treatment [1] | inhibition of L-type calcium channels [2] | further results
1 | COC(=O)C1=C(C)NC(C)=C(C(=O)OC(C)C)C1c1cccc2nonc12 (stereo not drawn) [isradipine, 3,5-pyridinedicarboxylic acid, 4-(4-benzofurazanyl)-1,4-dihydro-2,6-dimethyl-, methyl 1-methylethyl ester] | dose-dependent | diminished | inhibited | pacemaking during sustained blockade of Cav1.3 channels ([2]; adult SNc dopaminergic neuron, before, during and after application, FIG. 4): restores pacemaking and dopaminergic neuron cell function through an altered pacemaking mechanism
2 | COCCOC(=O)C1=C(C)NC(C)=C(C(=O)OC(C)C)C1c1cccc([N+](=O)[O-])c1 (stereo not drawn) [nimodipine, isopropyl 2-methoxyethyl 1,4-dihydro-2,6-dimethyl-4-(m-nitrophenyl)-3,5-pyridinedicarboxylate] | – | – | inhibited | autonomous pacemaking of dopaminergic neurons ([2]; tissue slice from an adult, FIGS. 1a-d): inhibits autonomous pacemaking
3 | C#CCN[C@@H]1CCc2ccccc21 [rasagiline] | dose-dependent | diminished; also recorded: further lowers stress | – | pacemaking of SNc dopaminergic neurons [3]: no effect on pacemaking; mitochondrial oxidant stress in SNc dopaminergic neurons, acute treatment [4]: lowers mitochondrial oxidant stress; calcium entry linked to pacemaking (intracellular calcium oscillations) [5]: no effect
4 | NC1=N[C@H](O)[C@H]2[C@H]3O[C@]4(O)O[C@@H]([C@@H](O)[C@@]2(N1)[C@@H]4O)[C@]3(O)CO [tetrodotoxin] | – | – | – | spikes and underlying oscillations that drive pacemaking [2]: eliminates spikes but not the underlying oscillations
